Format in all cases: biochemical
One test concerns the target PIM-1 (Homo sapiens, UniProt P11309). The test can be described thus: Enzyme PIM-1 Assay ([33P]ATP incorporation into PIM2tide, filter plate). To be noted: averaged IC50; 35 μM ATP, 7.5 μM PIM2tide, 0.25 nM PIM-1, 60 min at 22° C. An outline of the steps: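 Ten-point, 3-fold dilution series (10 μM top, 2% DMSO final) tested for inhibition of 33P transfer from 35 μM ATP to 7.5 μM PIM2tide by 0.25 nM PIM-1. Reaction 60 min, 22 °C, pH 7.4 MOPS/MgCl2 buffer; phosphocellulose capture, scintillation counting, IC50 where fitted POC equals 50.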

The next test concerns the target recombinant rat PIM-3 (Rattus norvegicus, UniProt O70444). Put plainly: PIM-3 Assay (as Example A). To be noted: averaged IC50; 30 μM ATP, 3.75 μM PIM2tide, 0.5 nM PIM-3. An outline of the steps: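 33P incorporation from 30 μM [γ-33P]ATP into 3.75 μM PIM2tide by 0.5 nM rat PIM-3, 60 min at 22 °C in pH 7.4 MOPS buffer, read by P81 filter capture and scintillation counting. Compounds tested in 3-fold dilutions up to 10 μM final, 2% DMSO; percent-of-control data fitted by 4-parameter logistic for IC50.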

The target of test [1] is T1, GST-tagged recombinant full-length human Pim-2 (Homo sapiens, UniProt Q9P1W9).
T1 construct: GST-tagged recombinant full-length human Pim-2; GST
The test can be described thus: PIM-2 Assay (as Example A). To be noted: averaged IC50; 4 μM ATP, 1.0 μM PIM2tide, 1.5 nM Pim-2. In outline:
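IC50 was derived by 4-parameter logistic fitting of percent-of-control data over a 10-point, 3-fold series (highest 10 μM, 2% DMSO). Reactions held 1.5 nM GST-Pim-2 (full-length, human), 4 μM [γ-33P]ATP and 1.0 μM PIM2tide for 60 min at 22 °C, pH 7.4; 33P-peptide captured on P81 filters.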

SMILES strings stand for the structures. Counter-ions that a name gives are not always drawn.

PIM-1, sequence (P11309 whole entry, species assumed): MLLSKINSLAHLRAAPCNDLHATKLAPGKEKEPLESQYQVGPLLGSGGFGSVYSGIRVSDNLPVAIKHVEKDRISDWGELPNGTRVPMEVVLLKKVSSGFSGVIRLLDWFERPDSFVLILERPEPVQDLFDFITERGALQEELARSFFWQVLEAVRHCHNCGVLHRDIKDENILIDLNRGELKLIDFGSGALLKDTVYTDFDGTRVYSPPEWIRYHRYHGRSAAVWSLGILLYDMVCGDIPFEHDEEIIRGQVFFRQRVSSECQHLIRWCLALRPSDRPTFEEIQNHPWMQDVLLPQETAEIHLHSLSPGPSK
T1 sequence (Q9P1W9 whole entry): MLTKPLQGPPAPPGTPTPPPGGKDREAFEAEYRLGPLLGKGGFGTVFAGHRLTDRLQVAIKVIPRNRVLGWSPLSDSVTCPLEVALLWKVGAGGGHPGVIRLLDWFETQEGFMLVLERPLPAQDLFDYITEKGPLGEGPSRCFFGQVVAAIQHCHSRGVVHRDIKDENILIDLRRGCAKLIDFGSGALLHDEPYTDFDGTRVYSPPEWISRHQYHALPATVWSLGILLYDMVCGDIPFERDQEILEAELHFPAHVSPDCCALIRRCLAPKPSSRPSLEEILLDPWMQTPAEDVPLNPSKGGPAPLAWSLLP

Regarding `CC(C)Oc1cccc2ccc(-c3nnc4ccc([C@H](N5CC[C@](C)(N)C5)C(F)(F)F)cn34)nc12` [Example 92, (S)-3-methyl-1-((S)-2,2,2-trifluoro-1-(3-(8-isopropoxyquinolin-2-yl)-[1,2,4]triazolo[4,3-a]pyridin-6-yl)ethyl)pyrrolidin-3-amine dihydrochloride], the concentration for half-maximal inhibition (IC50) (in general, the concentration that gives 50% inhibition) against PIM-1 was 0.22 nM; on recombinant rat PIM-3 it was 0.8 nM; in test [1], 33 nM.
Turning to `CC(C)Oc1cccc2ccc(-c3nnc4ccc([C@@H](N5CC[C@](C)(N)C5)C(F)(F)F)cn34)nc12` [Example 93, (S)-3-methyl-1-((R)-2,2,2-trifluoro-1-(3-(8-isopropoxyquinolin-2-yl)-[1,2,4]triazolo[4,3-a]pyridin-6-yl)ethyl)pyrrolidin-3-amine dihydrochloride], the IC50 at PIM-1 was determined as 0.2 nM; on recombinant rat PIM-3, 0.9 nM; in test [1] it was 83 nM.
`C[C@@]1(N)CCN([C@@H](c2ccc3nnc(-c4ccc5cccc(C6CC6)c5n4)n3c2)C(F)(F)F)C1` [Example 94, (R)-1-((S)-1-(3-(8-cyclopropylquinolin-2-yl)-[1,2,4]triazolo[4,3-a]pyridin-6-yl)-2,2,2-trifluoroethyl)-3-methylpyrrolidin-3-amine dihydrochloride]: the IC50 was found to be 0.29 nM against PIM-1, 4.6 nM at recombinant rat PIM-3 and 31 nM in test [1].
For `C[C@@]1(N)CCN([C@H](c2ccc3nnc(-c4ccc5cccc(C6CC6)c5n4)n3c2)C(F)(F)F)C1` [Example 95, (R)-1-((R)-1-(3-(8-cyclopropylquinolin-2-yl)-[1,2,4]triazolo[4,3-a]pyridin-6-yl)-2,2,2-trifluoroethyl)-3-methylpyrrolidin-3-amine dihydrochloride], in that order: 0.19 nM, 3 nM and 79 nM.
For `C[C@]1(N)CCN([C@@H](c2ccc3nnc(-c4ccc5cccc(C6CC6)c5n4)n3c2)C(F)(F)F)C1` [Example 96, (S)-1-((S)-1-(3-(8-cyclopropylquinolin-2-yl)-[1,2,4]triazolo[4,3-a]pyridin-6-yl)-2,2,2-trifluoroethyl)-3-methylpyrrolidin-3-amine dihydrochloride], in that order: 0.12 nM, 0.5 nM and 5.4 nM.
For `C[C@]1(N)CCN([C@H](c2ccc3nnc(-c4ccc5cccc(C6CC6)c5n4)n3c2)C(F)(F)F)C1` [Example 97, (S)-1-((R)-1-(3-(8-cyclopropylquinolin-2-yl)-[1,2,4]triazolo[4,3-a]pyridin-6-yl)-2,2,2-trifluoroethyl)-3-methylpyrrolidin-3-amine dihydrochloride] the same measures were 0.11 nM, 8.1 nM and 65 nM.
Turning to `COCCOc1cc(F)cc2ccc(-c3nnc4ccc([C@@H](N5CC[C@H](N)C5)C(F)(F)F)cn34)nc12` [Example 98, (S)-1-((R)-2,2,2-trifluoro-1-(3-(6-fluoro-8-(2-methoxyethoxy)quinolin-2-yl)-[1,2,4]triazolo[4,3-a]pyridin-6-yl)ethyl)pyrrolidin-3-amine hydrochloride], the results for the IC50 (against PIM-1; on recombinant rat PIM-3; in test [1]) were 0.38 nM, 1.8 nM and over 100 nM, respectively.
For `CC(C)(C#N)c1cccc2ccc(-c3nnc4ccc([C@@H](N5CC[C@H](N)C5)C(F)(F)F)cn34)nc12` [Example 99, 2-(2-(6-((R)-1-((S)-3-aminopyrrolidin-1-yl)-2,2,2-trifluoroethyl)-[1,2,4]triazolo[4,3-a]pyridin-3-yl)quinolin-8-yl)-2-methylpropanenitrile dihydrochloride] the same measures were 0.11 nM, 0.6 nM and 55 nM.
As for `CC(C)(C)c1cccc2ccc(-c3nnc4ccc([C@@H](N5CC[C@H](NCCO)C5)C(F)(F)F)cn34)nc12` [Example 100, 2-((S)-1-((R)-1-(3-(8-tert-butylquinolin-2-yl)-[1,2,4]triazolo[4,3-a]pyridin-6-yl)-2,2,2-trifluoroethyl)pyrrolidin-3-ylamino)ethanol dihydrochloride], the IC50 against PIM-1 came out at 0.1 nM; on recombinant rat PIM-3, 1.1 nM; in test [1], 6.5 nM.
For `CC(C)Oc1cccc2ccc(-c3nnc4ccc([C@@H](N5CC[C@H](NCCO)C5)C(F)(F)F)cn34)nc12` [Example 101, 2-((S)-1-((R)-2,2,2-trifluoro-1-(3-(8-isopropoxyquinolin-2-yl)-[1,2,4]triazolo[4,3-a]pyridin-6-yl)ethyl)pyrrolidin-3-ylamino)ethanol dihydrochloride], in that order: 0.15 nM, 0.8 nM and 40 nM.
As for `CC(C)Oc1cc(F)cc2ccc(-c3nnc4ccc([C@@H](N5CC[C@H](NCCO)C5)C(F)(F)F)cn34)nc12` [Example 102, 2-((S)-1-((R)-2,2,2-trifluoro-1-(3-(6-fluoro-8-isopropoxyquinolin-2-yl)-[1,2,4]triazolo[4,3-a]pyridin-6-yl)ethyl)pyrrolidin-3-ylamino)ethanol dihydrochloride], the results for the concentration for half-maximal inhibition (IC50) (against PIM-1; at recombinant rat PIM-3; in test [1]) were 0.19 nM, 0.7 nM and 30 nM, respectively.
For `CC(C)Oc1cccc2ccc(-c3nnc4ccc([C@H](N5CC[C@@H](O)C5)C(F)(F)F)cn34)nc12` [Example 103, (R)-1-((S)-2,2,2-trifluoro-1-(3-(8-isopropoxyquinolin-2-yl)-[1,2,4]triazolo[4,3-a]pyridin-6-yl)ethyl)pyrrolidin-3-ol], in that order: 0.1 nM, 3.1 nM and over 100 nM.
For `CC(C)(C)c1cccc2ccc(-c3nnc4ccc([C@H](N5CC[C@@H](O)C5)C(F)(F)F)cn34)nc12` [Example 104], in that order: 0.17 nM, 12 nM and over 100 nM.
For `COCC(C)(C)c1cccc2ccc(-c3nnc4ccc([C@@H](N5CC[C@H](N)C5)C(F)(F)F)cn34)nc12` [Example 105, (S)-1-((R)-2,2,2-trifluoro-1-(3-(8-(1-methoxy-2-methylpropan-2-yl)quinolin-2-yl)-[1,2,4]triazolo[4,3-a]pyridin-6-yl)ethyl)pyrrolidin-3-amine dihydrochloride], in that order: 0.04 nM, 0.7 nM and 13 nM.
In the case of `CC(C)C(=O)Nc1ccc2ccc(-c3nnc4ccc([C@@H](N5CC[C@H](O)C5)C(F)(F)F)cn34)nc2c1` [Example 106, N-(2-(6-((R)-2,2,2-trifluoro-1-((S)-3-hydroxypyrrolidin-1-yl)ethyl)-[1,2,4]triazolo[4,3-a]pyridin-3-yl)quinolin-7-yl)isobutyramide], the IC50 was 1.62 nM against PIM-1, 3.4 nM on recombinant rat PIM-3 and over 100 nM in test [1].
On to `CC(C)(C)C(=O)Nc1ccc2ccc(-c3nnc4ccc([C@@H](N5CC[C@H](O)C5)C(F)(F)F)cn34)nc2c1` [Example 107, N-(2-(6-((R)-2,2,2-trifluoro-1-((S)-3-hydroxypyrrolidin-1-yl)ethyl)-[1,2,4]triazolo[4,3-a]pyridin-3-yl)quinolin-7-yl)pivalamide], for which the figures for the IC50 (at PIM-1; on recombinant rat PIM-3; in test [1]) were 0.48 nM, 0.9 nM and over 100 nM, respectively.
